Data set [1] in a line: Intrinsic clearance in human liver microsomes. In kind it is ADME, Microsome. Particulars: read-out: CLH. For orientation: Liver microsomes are vesicles of endoplasmic reticulum, rich in cytochrome P450 enzymes.
The next data set relates to Liver microsomes. As to the kind of experiment: (§1) Intrinsic clearance in rat liver microsomes. In kind it is ADME, Microsome. Conditions: microsomes.
Data set [2] is described as follows: as §1. In kind it is ADME, Microsome. Particulars: liver microsomes, read-out: CLH.
The target of data set [3] is High affinity cAMP-specific and IBMX-insensitive 3',5'-cyclic phosphodiesterase 8B (Homo sapiens, UniProt O95263). Kind of data set: Inhibition of PDE8B expressed in Sf9 insect cells.
Chain of High affinity cAMP-specific and IBMX-insensitive 3',5'-cyclic phosphodiesterase 8B (O95263 whole entry): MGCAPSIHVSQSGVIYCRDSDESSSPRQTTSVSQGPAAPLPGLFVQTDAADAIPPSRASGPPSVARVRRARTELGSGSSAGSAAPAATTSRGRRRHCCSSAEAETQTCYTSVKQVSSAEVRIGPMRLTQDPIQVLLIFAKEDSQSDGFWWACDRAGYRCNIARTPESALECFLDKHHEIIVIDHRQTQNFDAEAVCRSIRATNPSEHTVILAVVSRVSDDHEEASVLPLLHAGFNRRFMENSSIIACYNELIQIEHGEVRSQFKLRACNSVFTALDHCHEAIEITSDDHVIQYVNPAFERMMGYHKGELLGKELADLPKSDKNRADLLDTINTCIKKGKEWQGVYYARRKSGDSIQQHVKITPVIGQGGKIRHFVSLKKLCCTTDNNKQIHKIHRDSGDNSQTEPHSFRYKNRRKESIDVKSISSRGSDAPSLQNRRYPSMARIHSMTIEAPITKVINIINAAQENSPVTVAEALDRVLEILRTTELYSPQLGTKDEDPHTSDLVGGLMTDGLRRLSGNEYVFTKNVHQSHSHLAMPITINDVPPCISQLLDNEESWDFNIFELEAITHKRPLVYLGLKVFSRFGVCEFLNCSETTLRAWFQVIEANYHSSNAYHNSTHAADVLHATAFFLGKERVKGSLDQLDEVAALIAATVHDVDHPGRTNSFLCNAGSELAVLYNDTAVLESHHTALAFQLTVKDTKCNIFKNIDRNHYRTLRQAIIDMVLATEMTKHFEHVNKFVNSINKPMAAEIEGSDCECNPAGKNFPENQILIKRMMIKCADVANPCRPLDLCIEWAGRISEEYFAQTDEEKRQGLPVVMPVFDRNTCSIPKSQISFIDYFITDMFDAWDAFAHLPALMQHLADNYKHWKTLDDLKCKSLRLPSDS
Data set [4] can be described thus: Volume of distribution at steady state in iv dosed rat. In kind it is ADME, organism-based. Conditions: in vivo, read-out: Vdss.
Data set [5] in a line: Oral bioavailability in rat. In kind it is ADME, organism-based. Particulars: in vivo.
A short description of data set [6]: Clearance in iv dosed dog. In kind it is ADME, organism-based, Canis lupus familiaris. Conditions: in vivo.
Data set [7] in a line: Oral bioavailability in dog. In kind it is ADME, organism-based, Canis lupus familiaris. Conditions: in vivo.
A short description of data set [8]: Clearance in iv dosed rat. In kind it is ADME, organism-based. Conditions: in vivo.
Data set [9] can be described thus: Volume of distribution at steady state in iv dosed dog. In kind it is ADME, organism-based, Canis lupus familiaris. Conditions: in vivo, read-out: Vdss.
The species entered for data set [10] is Canis familiaris. As to the kind of experiment: Cardiotoxicity in dog assessed as increase in blood pressure at > 10 times IC50. In kind it is toxicity, organism-based, Canis lupus familiaris.
For data set [11], the target named is Voltage-gated inwardly rectifying potassium channel KCNH2 (Homo sapiens, UniProt Q12809). As to the kind of experiment: Inhibition of human ERG.
Chain of Voltage-gated inwardly rectifying potassium channel KCNH2 (Q12809 whole entry): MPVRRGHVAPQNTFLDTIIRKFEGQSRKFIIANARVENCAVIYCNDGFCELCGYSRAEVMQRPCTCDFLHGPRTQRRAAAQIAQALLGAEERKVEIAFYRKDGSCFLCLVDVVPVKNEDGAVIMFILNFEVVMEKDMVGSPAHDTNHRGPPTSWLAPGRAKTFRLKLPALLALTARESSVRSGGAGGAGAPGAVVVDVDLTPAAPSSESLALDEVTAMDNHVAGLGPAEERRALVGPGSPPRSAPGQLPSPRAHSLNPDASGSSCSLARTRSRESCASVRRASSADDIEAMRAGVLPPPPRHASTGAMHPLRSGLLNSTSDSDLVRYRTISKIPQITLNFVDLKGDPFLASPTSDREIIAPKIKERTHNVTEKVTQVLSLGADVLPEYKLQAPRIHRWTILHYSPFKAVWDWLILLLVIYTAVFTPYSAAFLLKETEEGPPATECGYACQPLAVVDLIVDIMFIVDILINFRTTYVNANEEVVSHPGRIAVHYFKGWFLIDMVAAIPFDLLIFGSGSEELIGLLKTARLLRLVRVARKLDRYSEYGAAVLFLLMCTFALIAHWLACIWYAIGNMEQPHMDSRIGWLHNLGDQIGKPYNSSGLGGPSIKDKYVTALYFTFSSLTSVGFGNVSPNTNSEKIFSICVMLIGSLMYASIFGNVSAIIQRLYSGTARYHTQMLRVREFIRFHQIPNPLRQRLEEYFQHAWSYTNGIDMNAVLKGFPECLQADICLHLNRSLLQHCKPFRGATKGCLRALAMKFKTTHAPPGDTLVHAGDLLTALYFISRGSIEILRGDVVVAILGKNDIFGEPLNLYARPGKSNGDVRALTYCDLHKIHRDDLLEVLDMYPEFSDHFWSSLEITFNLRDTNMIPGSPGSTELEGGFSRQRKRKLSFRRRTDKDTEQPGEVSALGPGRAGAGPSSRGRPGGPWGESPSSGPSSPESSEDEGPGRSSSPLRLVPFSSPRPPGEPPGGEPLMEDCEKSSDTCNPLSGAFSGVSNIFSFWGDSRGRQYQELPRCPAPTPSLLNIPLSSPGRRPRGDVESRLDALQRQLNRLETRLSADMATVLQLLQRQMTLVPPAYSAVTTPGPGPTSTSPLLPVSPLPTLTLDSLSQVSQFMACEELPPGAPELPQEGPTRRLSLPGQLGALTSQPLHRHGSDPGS
In data set [12] the target is Kappa-type opioid receptor (Homo sapiens) (UniProt P41145). Kind of data set: Inhibition of kappa opioid receptor.
Chain of Kappa-type opioid receptor (Homo sapiens) (P41145 whole entry): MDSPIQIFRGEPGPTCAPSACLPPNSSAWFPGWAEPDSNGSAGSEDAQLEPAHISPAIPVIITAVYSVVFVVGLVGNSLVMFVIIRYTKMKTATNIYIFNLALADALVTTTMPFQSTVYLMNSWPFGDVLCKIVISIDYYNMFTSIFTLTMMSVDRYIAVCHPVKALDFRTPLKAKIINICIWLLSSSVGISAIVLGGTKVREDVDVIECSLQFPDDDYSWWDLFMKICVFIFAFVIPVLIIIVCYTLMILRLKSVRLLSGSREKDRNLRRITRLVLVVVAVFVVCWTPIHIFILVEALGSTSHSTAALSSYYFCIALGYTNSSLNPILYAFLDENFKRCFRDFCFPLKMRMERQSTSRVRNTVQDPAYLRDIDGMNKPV
The nature of data set [13]: Efflux ratio of permeability of the compound across MDCK cells. In kind it is ADME, cell-based, Canis lupus familiaris. Conditions: dog.
For the next data set, the system named is Pancreatic islet. As to the kind of experiment: Induction of insulin secretion in human pancreatic islet cells at 0.001 to 100 uM in presence of glucose. In kind it is functional.
Data set [14] is described as follows: Fraction unbound in human plasma. In kind it is ADME, cell-free.
The nature of data set [15]: Solubility of the compound at pH 4. In kind it is physicochemical. Conditions: buffer.
Data set [16] in a line: Fraction unbound in rat plasma. In kind it is ADME, cell-free.
A short description of data set [17]: Genotoxicity in micronucleus.
In a further data set the test system is Salmonella typhimurium. Kind of data set: Genotoxicity in Salmonella typhimurium. In kind it is toxicity, organism-based. Conditions: salmonella enterica subsp. enterica serovar typhimurium.
The target of data set [18] is High affinity cAMP-specific and IBMX-insensitive 3',5'-cyclic phosphodiesterase 8A (Homo sapiens, UniProt O60658). As to the kind of experiment: Inhibition of PDE8A.
Chain of High affinity cAMP-specific and IBMX-insensitive 3',5'-cyclic phosphodiesterase 8A (O60658 whole entry): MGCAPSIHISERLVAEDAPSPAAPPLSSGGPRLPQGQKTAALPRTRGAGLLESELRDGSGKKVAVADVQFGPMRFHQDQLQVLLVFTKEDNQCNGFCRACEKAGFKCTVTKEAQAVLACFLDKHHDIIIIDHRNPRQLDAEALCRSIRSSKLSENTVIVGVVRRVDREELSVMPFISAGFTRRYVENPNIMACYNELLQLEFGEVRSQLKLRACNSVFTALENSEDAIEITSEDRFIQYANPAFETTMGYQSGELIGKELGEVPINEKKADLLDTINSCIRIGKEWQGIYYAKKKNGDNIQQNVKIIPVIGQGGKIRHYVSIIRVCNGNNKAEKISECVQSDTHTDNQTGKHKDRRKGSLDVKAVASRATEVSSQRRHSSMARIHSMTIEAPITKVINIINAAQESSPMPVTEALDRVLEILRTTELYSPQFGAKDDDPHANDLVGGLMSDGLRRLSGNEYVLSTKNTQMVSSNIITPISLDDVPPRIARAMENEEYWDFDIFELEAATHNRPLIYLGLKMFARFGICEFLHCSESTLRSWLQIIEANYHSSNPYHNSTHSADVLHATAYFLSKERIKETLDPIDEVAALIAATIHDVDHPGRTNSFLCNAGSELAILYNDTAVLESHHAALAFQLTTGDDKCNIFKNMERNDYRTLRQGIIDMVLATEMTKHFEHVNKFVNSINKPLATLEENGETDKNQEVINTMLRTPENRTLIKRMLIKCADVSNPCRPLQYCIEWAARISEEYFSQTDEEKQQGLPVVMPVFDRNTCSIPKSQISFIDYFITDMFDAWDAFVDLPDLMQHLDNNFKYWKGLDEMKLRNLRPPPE
The species entered for data set [19] is Canis familiaris. As to the kind of experiment: Cardiotoxicity in dog assessed as increase in heart rate at > 10 times IC50. In kind it is toxicity, organism-based, Canis lupus familiaris. Particulars: in vivo.
The nature of data set [20]: Fraction unbound in dog plasma. In kind it is ADME, cell-free, Canis lupus familiaris.
The nature of data set [21]: Dissociation constant, pKa of the compound. In kind it is physicochemical.
For data set [22], the species on record is Homo sapiens. Kind of data set: Inhibition of PDE.
Data set [23] is filed under the species Homo sapiens. Kind of data set: Selectivity ratio for PDE to PDE8B.
Data set [24] can be described thus: Solubility of the compound at pH 7.4. In kind it is physicochemical. Particulars: buffer.
In data set [25] the target is 3',5'-cyclic-AMP phosphodiesterase 4D (Homo sapiens) (UniProt Q08499). Kind of data set: Inhibition of PDE4D at 1 uM.
Chain of 3',5'-cyclic-AMP phosphodiesterase 4D (Homo sapiens) (Q08499 whole entry): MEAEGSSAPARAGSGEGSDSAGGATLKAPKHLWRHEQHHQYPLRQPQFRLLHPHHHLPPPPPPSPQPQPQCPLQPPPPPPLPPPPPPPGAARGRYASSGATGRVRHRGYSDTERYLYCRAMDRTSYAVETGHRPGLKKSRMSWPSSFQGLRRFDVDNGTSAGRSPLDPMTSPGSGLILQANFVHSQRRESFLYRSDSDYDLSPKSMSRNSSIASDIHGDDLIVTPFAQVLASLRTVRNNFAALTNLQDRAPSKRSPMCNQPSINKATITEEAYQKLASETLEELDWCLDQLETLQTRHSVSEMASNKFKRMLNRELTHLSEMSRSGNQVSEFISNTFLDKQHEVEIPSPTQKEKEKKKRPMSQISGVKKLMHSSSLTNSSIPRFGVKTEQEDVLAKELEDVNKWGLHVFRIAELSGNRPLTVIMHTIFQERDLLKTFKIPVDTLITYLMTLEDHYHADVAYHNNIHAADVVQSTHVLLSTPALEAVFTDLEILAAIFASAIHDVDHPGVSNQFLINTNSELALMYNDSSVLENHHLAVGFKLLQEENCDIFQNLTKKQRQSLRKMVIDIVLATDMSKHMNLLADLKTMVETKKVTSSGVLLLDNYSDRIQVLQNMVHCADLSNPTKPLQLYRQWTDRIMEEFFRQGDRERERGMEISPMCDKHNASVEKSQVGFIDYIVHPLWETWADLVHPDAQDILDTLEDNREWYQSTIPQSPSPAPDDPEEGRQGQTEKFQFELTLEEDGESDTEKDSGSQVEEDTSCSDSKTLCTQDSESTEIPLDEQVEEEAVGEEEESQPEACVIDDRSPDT
For data set [26], the target named is 3',5'-cyclic-AMP phosphodiesterase 4C (Homo sapiens) (UniProt Q08493). As to the kind of experiment: Inhibition of PDE4C at 1 uM.
Chain of 3',5'-cyclic-AMP phosphodiesterase 4C (Homo sapiens) (Q08493 whole entry): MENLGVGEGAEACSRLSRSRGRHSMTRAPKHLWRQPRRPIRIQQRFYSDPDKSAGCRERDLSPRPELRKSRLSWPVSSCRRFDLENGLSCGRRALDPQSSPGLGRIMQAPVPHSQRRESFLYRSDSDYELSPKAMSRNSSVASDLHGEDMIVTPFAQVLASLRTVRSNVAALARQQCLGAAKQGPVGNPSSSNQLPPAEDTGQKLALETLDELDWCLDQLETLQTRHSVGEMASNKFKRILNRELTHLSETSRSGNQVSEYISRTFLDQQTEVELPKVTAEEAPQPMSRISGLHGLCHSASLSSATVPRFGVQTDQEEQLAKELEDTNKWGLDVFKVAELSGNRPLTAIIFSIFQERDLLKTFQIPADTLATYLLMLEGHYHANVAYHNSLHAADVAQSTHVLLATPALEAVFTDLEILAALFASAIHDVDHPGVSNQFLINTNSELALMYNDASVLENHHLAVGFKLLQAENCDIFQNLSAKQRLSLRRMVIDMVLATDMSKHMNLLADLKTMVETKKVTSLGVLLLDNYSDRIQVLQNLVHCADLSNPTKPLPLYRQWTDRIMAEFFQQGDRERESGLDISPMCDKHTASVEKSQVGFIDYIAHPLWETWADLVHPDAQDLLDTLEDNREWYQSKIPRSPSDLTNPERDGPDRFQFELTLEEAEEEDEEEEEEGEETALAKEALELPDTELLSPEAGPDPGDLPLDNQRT
Data set [27] can be described thus: Solubility of the compound. In kind it is physicochemical.

Converted amounts (≈) assume the structure as drawn. The source made the active and inactive calls. The rule behind the calls is not given here.

Broadly, the IC50 is the concentration needed to halve the response being measured. Read a low IC50 as greater potency in that assay. Broadly, the bioavailability is dose-corrected exposure relative to a reference, in per cent. High values mean much systemic uptake, low ones little systemic uptake. Usually clearance stands for the volume of plasma or blood freed of the substance per unit of time. Low values mean inefficient removal, high ones efficient removal. The term efflux ratio denotes a quotient of directional permeabilities that is used to spot active efflux. What is called fraction unbound is the share of the substance not bound to proteins or other matrix. The term solubility denotes the concentration that dissolves in the medium under given conditions. Read a high solubility as a readily soluble substance. By pKa is commonly meant the negative logarithm of the acid dissociation constant. Read a high pKa as a group that holds its proton tightly. The inhibition is the relative decrease from the control value, in per cent. A higher inhibition goes with strong suppression.

As for `Nc1nc(C2CC2)nc2c1nnn2CC1CCCCO1` (centres undefined), the microsomal CLint is below 7.2 µL/min/mg in [1] and 93 µL/min/mg in the data set with Liver microsomes.

Take `Cc1ccnc(N2CCCC(Cn3nnc4c(N)nc(C5CC5)nc43)C2)n1` (centres undefined): the microsomal CLint in data set [1] worked out at 303 µL/min/mg; in [2], 625 µL/min/mg.

With `Nc1nc(C2CC2)nc2c1ncn2C[C@H]1CCCO1`, the 50% inhibitory concentration (IC50) in data set [3] is above 2000 nM.

In the case of `COCc1nc(N)c2nnn(CC3CCCCO3)c2n1` (centres undefined), the microsomal CLint in data set [1] is below 7.2 µL/min/mg.

For the compound `CCc1nc(Cn2nnc3c(N)nc(C4CC4)nc32)cs1`, the microsomal CLint in [1] is 24.6 µL/min/mg; in data set [2], below 14 µL/min/mg. Besides, the Vd was determined as 5.5 L/kg in data set [4] and 0.9 L/kg in data set [9]. Besides, the bioavailability in data set [5] and in [7] was below 5% each time. The clearance in data set [6] was determined as 11 mL/min/kg; in data set [8], 29 mL/min/kg.

For `FC(F)(F)c1nc(NCc2cccnc2)c2nnn(CC3CCCCO3)c2n1` (centres undefined), in [3], the IC50 is above 420 nM.

On to `Cc1nc(N)c2nnn(C[C@H]3CN(Cc4nccs4)CCO3)c2n1`, for which the values for the microsomal CLint in data set [1] and in [2] were below 8 µL/min/mg and below 14 µL/min/mg, respectively. For the same compound, the Activity entry in the data set filed under Canis familiaris [10] is recorded as “Toxic”; in data set [17], “Non-toxic”; in the data set on Salmonella typhimurium, “Non-toxic”; in the data set listed under Canis familiaris [19], “Toxic”. The values for the IC50 in data set [11], in data set [3] and in data set [18] were above 100000 nM, 1.3 nM and 1.9 nM, respectively. Also, the figures for the INH (in data set [12]; in the data set filed under Homo sapiens [22]) were 1.3 µM and above 10 µM, respectively. The efflux ratio in data set [13] stood at 3.5. The outcome in the data set with Pancreatic islet was Active. The bioavailability in [5] amounted to 63%; in data set [7], 100%. Also, the fraction unbound worked out at 0.46 in data set [14], 0.88 in data set [16] and 0.78 in [20]. In addition, the clearance in data set [6] amounted to 3.5 mL/min/kg; in data set [8] it was 23 mL/min/kg. For the same compound, the solubility is 2900 µg/mL (≈ 8.37 mM) in data set [15] and 150 µg/mL (≈ 0.433 mM) in [24]. In data set [21], this compound yielded a pKa of 4.9. In addition, the Selectivity ratio in the data set filed under Homo sapiens [23] is above 1000.

As for `Nc1nc(C(F)(F)F)nc2c1nnn2C[C@H]1CCCO1`, the results for the Vd in [4] and in [9] were 1.7 L/kg and 1.4 L/kg, respectively. Moreover, the bioavailability in [5] is 17%; in data set [7], 13%. Further, the clearance in data set [6] was determined as 22 mL/min/kg; in [8], 61 mL/min/kg.

Consider `Cc1nc(N)c2nnn(C[C@H]3CN(Cc4cc(F)cc(F)c4)CCO3)c2n1`, for which the microsomal CLint was 36 µL/min/mg in [1] and 80 µL/min/mg in data set [2]. This compound also showed a bioavailability in data set [5] of 12%. The clearance is 4.8 mL/min/kg in [6] and 28 mL/min/kg in [8]. Also, the Activity result (in data set [17]; with Salmonella typhimurium) was “Non-toxic” in each case.

Take `Nc1nc(C2CC2)nc2c1nnn2Cc1cc(C2CC2)n[nH]1`: the microsomal CLint in data set [1] was below 7.2 µL/min/mg.

Take `Nc1nc(C2CC2)nc2c1nnn2C[C@H]1CN(Cc2nccs2)CCO1`: the microsomal CLint in [1] came out at 20 µL/min/mg; in data set [2] it was 50 µL/min/mg. For the same compound, the bioavailability in [5] turned out to be 20%. For the same compound, the Activity entry (in [17]; with Salmonella typhimurium) was “Non-toxic” each time. The compound also showed a clearance in data set [8] of 72 mL/min/kg.

In the case of `Nc1nc(C2CC2)nc2c1nnn2CC1CCCOC1` (centres undefined), the microsomal CLint in [1] was below 7.2 µL/min/mg; in [2] it was 35 µL/min/mg.

For the compound `Nc1nc(C2CC2)nc2c1nnn2C[C@H]1CCCO1`, the microsomal CLint in [1] is 11.9 µL/min/mg; in data set [2], below 28 µL/min/mg.

On to `Nc1ncnc2c1nnn2CC1CCCCO1` (centres undefined), for which the microsomal CLint in data set [1] is below 7.2 µL/min/mg.

On to `Nc1nc(C2CC2)nc2c1nnn2C[C@H]1CN(Cc2ncccn2)CCO1`, for which the microsomal CLint in data set [1] was 16 µL/min/mg; in [2], 75 µL/min/mg. Also, the clearance in data set [6] came to 7 mL/min/kg; in data set [8], 124 mL/min/kg. For the same compound, the Activity result (in data set [17]; with Salmonella typhimurium) was “Non-toxic” throughout.

As to `Nc1nc(C2CCCCC2)nc2c1nnn2CC1CCCCO1` (centres undefined), the microsomal CLint in [1] was determined as 100 µL/min/mg.

As to `Nc1nc(C2CC2)nc2c1nnn2C[C@@H]1CCN(Cc2nccs2)C1`, the microsomal CLint was determined as 30 µL/min/mg in [1] and 230 µL/min/mg in [2]. The inhibition in data set [25] was 52%; in [26] it was 62%. The compound further came in with an IC50 in data set [3] of 206 nM.

`Nc1nc(C2CC2)nc2c1nnn2Cc1ccc(Cl)cc1`: in [1], the microsomal CLint is below 7.2 µL/min/mg.

`CCc1cnc(N2CC[C@@H](Cn3nnc4c(N)nc(C5CC5)nc43)C2)nc1`: the microsomal CLint in [1] was 52 µL/min/mg; in data set [2], 244 µL/min/mg.

On to `CCc1csc(CN2CCO[C@@H](Cn3nnc4c(N)nc(C)nc43)C2)n1`, for which the microsomal CLint turned out to be 15 µL/min/mg in data set [1] and 22 µL/min/mg in [2]. In addition, the bioavailability in data set [5] is 45%. For the same compound, the clearance in [6] was 5.6 mL/min/kg; in data set [8], 24 mL/min/kg. In addition, the Activity entry (in data set [17]; in the data set with Salmonella typhimurium) was “Non-toxic” each time.

As to `Nc1nc(-c2ccccc2)nc2c1nnn2CC1CCCCO1` (centres undefined), the microsomal CLint in [1] is 17 µL/min/mg.

As to `Nc1nc(C2CC2)nc2c1nnn2CC1CCCN(Cc2ccccc2)C1` (centres undefined), the microsomal CLint in data set [1] is 150 µL/min/mg. Further, the inhibition in data set [25] came to 64%; in data set [26], 60%. The same compound registered an IC50 in data set [3] of 3620 nM.

Regarding `Nc1nc(C(F)(F)F)nc2c1nnn2C[C@H]1CN(Cc2ccccn2)CCO1`, the microsomal CLint in [1] and in [2] was 36 µL/min/mg throughout. Further, the clearance in [6] came to 8.5 mL/min/kg; in data set [8], 121 mL/min/kg. The Activity result (in data set [17]; with Salmonella typhimurium) was “Non-toxic” throughout.

Take `Nc1nc(C2CC2)nc2c1nnn2CC1CN(Cc2ccccc2)CCO1` (centres undefined): the solubility entry in data set [27] was “soluble”.

With `CC(C)n1cc(Cn2nnc3c(N)nc(C4CC4)nc32)cn1`, the microsomal CLint in data set [1] is below 7.2 µL/min/mg.

These data come from ChEMBL document CHEMBL2069214, “Discovery of triazolopyrimidine-based PDE8B inhibitors: exceptionally ligand-efficient and lipophilic ligand-efficient compounds for the treatment of diabetes” (Bioorg Med Chem Lett, 2012).
